Data taken from publication PMC4856977, “Efficient enzymatic synthesis and dual-colour fluorescent labelling of DNA probes using long chain azido-dUTP and BCN dyes” (Nucleic Acids Research, 2016).

Columns and labels:
Klenow large fragment = biological target: T1, Klenow large fragment (Escherichia coli, UniProt P00582); assay: primer extension, denaturing PAGE and mass spectrometry; type: biochemical; conditions: templates T1 and T2, primer P3; 37°C
T1 construct: gene polA; large (Klenow) fragment of DNA polymerase I, without the N-terminal 5'-3' exonuclease domain; commercial (New England Biolabs)

Therminator II = biological target: T2, Therminator II (Thermococcus sp. 9oN-7, UniProt Q56366, D141A/E143A/Y409V/A485L, form not given); assay: as above; type: biochemical; conditions: templates T1 and T2, primer P3; 72°C
T2 construct: gene pol; commercial engineered variant of 9°N DNA polymerase (New England Biolabs)
T2 sequence (Q56366 whole entry D141A/E143A/Y409V/A485L, form open): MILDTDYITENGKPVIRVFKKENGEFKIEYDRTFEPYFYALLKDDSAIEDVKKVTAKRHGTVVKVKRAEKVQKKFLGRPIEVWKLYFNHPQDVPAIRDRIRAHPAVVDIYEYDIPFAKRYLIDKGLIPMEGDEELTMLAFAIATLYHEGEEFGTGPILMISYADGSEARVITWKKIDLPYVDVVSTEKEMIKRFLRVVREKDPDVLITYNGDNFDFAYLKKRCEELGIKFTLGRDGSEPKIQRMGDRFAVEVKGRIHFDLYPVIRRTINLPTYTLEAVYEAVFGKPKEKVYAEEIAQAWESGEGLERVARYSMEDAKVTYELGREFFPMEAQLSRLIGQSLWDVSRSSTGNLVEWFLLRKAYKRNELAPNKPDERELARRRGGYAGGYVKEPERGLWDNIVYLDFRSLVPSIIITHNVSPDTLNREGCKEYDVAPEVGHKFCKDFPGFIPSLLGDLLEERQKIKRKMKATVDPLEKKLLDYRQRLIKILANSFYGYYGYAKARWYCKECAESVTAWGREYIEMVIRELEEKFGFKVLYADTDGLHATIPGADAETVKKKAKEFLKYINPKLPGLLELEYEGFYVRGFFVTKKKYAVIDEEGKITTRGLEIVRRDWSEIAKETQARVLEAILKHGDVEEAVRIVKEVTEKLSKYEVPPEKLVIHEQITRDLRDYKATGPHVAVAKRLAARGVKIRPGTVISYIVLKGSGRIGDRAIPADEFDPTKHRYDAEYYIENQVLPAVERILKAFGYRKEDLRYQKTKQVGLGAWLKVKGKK

T1 sequence (P00582 324-928 limits assumed): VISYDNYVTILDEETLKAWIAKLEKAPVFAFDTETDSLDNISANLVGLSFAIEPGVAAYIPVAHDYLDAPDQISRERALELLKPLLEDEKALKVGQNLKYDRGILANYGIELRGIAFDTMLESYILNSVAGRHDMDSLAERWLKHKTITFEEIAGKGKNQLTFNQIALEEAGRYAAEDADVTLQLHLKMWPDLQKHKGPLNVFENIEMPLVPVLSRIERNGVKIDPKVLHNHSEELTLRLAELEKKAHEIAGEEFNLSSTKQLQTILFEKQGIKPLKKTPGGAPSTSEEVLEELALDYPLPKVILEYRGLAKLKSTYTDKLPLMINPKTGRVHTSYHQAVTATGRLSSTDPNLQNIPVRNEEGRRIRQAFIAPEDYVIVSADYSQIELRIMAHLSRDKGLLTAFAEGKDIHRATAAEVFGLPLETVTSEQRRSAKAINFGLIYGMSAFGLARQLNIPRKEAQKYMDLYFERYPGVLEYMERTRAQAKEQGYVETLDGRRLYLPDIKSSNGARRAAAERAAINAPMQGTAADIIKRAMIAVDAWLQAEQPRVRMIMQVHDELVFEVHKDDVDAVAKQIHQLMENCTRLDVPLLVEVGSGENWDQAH

With [N-]=[N+]=NCCCCCC(=O)NCC#Cc1cn([C@H]2C[C@H](O)[C@@H](COP(=O)(O)OP(=O)(O)OP(=O)(O)O)O2)c(=O)[nH]c1=O [AHP dUTP] the “primer extension, denaturing PAGE and mass spectrometry” value (Klenow large fragment) was “all four polymerases successfully incorporate AHP dUTP in the presence of templates T1 and T2” and the “primer extension, denaturing PAGE and mass spectrometry” value (Therminator II) was “all four polymerases successfully incorporate AHP dUTP in the presence of templates T1 and T2”.
